# From patent US20090311237A1, “Combination therapy using a soluble hyaluronidase and a bisphosphonate” (priority 2008, published 2009)
# Like-named read-outs stand apart in the source and are kept apart here.
# Assay: Phase 1 Stage 1 clinical pharmacokinetics of SC ZA co-administered with rHuPH20
# Assay type: in vivo, human
# Conditions: human, serum, sc, serum; for concentration at 6 h: 6 h post infusion; for concentration at 8 h: 8 h post infusion; for concentration at 12 h: 12 h post infusion; for concentration at 0 h: 0 h post infusion; for concentration at 10 min: 10 min post infusion; for concentration at 0.5 h: 0.5 h post infusion; for concentration at 1 h: 1 h post infusion; for concentration at 2 h: 2 h post infusion; for concentration at 4 h: 4 h post infusion; for concentration at 24 h: 24 h post infusion; for concentration at 48 h: 48 h post infusion
# Method: A pharmacokinetic study of zoledronic acid (ZA) co-administered with rHuPH20 in human subjects was conducted. The primary objective of the study was to determine the bioavailability of zoledronic acid dosed via subcutaneous (SC) co-administration with human recombinant hyaluronidase PH20 (rHuPH20). […] The patients were administered the prescribed dosage formulations as follows: Cohorts 1-5 were administered a single subcutaneous infusion in a dosage volume of 100 ml at a rate of 3 mL/min. […] The dosing solution is administered via needle or catheter into the SC space of the left anterior thigh (midway between the anterior iliac crest and the cephalad border of the patella). For cohorts 1-5, the dosing solutions were administered by a controlled rate infusion pump at approximately 3 mL/minute. […] The dosing solutions were administered by syringe push bolus injection. […] Serum concentration of ZA was determined using a qualified LC-MS-MS assay after derivatization with diazomethane (Zhu, L S et al. (2006) Rapid Commun. […] The assay range was from 2.0 to 400 ng/mL with a lower limit of quantitation (LLOQ) at 2.0 ng/mL. […] Non-compartmental analysis was used for derivation of primary and secondary pharmacokinetic (PK) parameters. […] Summary statistics (mean, standard deviation, and median) were calculated using JMP or Microsoft Excel.
# [1] = ZA 0.5 mg SC infusion + 24000 Units rHuPH20, n=3, read-out: Median Conc.
# [2] = ZA 0.5 mg SC infusion + 24000 Units rHuPH20, individual subjects, read-out: Zoledronic Acid Concentration
# [3] = ZA 0.5 mg SC infusion + 24000 Units rHuPH20, n=3, read-out: Mean Conc.
# [4] = ZA 1 mg SC infusion + 24000 Units rHuPH20, individual subjects, read-out: Zoledronic Acid Concentration
# [5] = ZA 1 mg SC infusion + 24000 Units rHuPH20, n=3, read-out: Mean Conc.
# [6] = ZA 1 mg SC infusion + 24000 Units rHuPH20, n=3, read-out: Median Conc.
# [7] = ZA 2 mg SC infusion + 24000 Units rHuPH20, individual subjects, read-out: Zoledronic Acid Concentration
# [8] = ZA 2 mg SC infusion + 24000 Units rHuPH20, n=3, read-out: Mean Conc.
# [9] = ZA 2 mg SC infusion + 24000 Units rHuPH20, n=3, read-out: Median Conc.
# [10] = ZA 5 mg SC infusion + 24000 Units rHuPH20, n=3, read-out: Mean Conc.
# [11] = ZA 5 mg SC infusion + 24000 Units rHuPH20, n=3, read-out: Median Conc.
# [12] = ZA 5 mg SC infusion + 24000 Units rHuPH20, individual subjects, read-out: Zoledronic Acid Concentration
smiles,measurement,setting,value
"O=P(O)(O)C(O)(Cn1ccnc1)P(=O)(O)O [ZA, 1-hydroxy-2-(1H-imidazol-1-yl)ethylidene-1,1-bisphosphonic acid]",concentration at 6 h,[1],2.53 ng/mL
same,concentration at 8 h,[2],1.19 ng/mL
same,concentration at 8 h,[3],1.32 ng/mL
same,concentration at 8 h,[1],1.34 ng/mL
same,concentration at 12 h,[2],0.52 ng/mL
same,concentration at 12 h,[3],0.54 ng/mL
same,concentration at 12 h,[1],0.55 ng/mL
same,concentration at 0 h,[4],28.4 ng/mL
same,concentration at 0 h,[5],20.5 ng/mL
same,concentration at 0 h,[6],17.9 ng/mL
same,concentration at 10 min,[4],32.1 ng/mL
same,concentration at 10 min,[5],27.2 ng/mL
same,concentration at 10 min,[6],25 ng/mL
same,concentration at 0.5 h,[4],33.4 ng/mL
same,concentration at 0.5 h,[5],28.1 ng/mL
same,concentration at 0.5 h,[6],28 ng/mL
same,concentration at 1 h,[4],29.9 ng/mL
same,concentration at 1 h,[5],25.5 ng/mL
same,concentration at 1 h,[6],27.2 ng/mL
same,concentration at 2 h,[4],24 ng/mL
same,concentration at 2 h,[5],19.6 ng/mL
same,concentration at 2 h,[6],17.7 ng/mL
same,concentration at 4 h,[4],13.3 ng/mL
same,concentration at 4 h,[5],10.3 ng/mL
same,concentration at 4 h,[6],10.2 ng/mL
same,concentration at 6 h,[4],5.48 ng/mL
same,concentration at 6 h,[5],4.9 ng/mL
same,concentration at 6 h,[6],5.47 ng/mL
same,concentration at 8 h,[4],2.44 ng/mL
same,concentration at 8 h,[5],2.69 ng/mL
same,concentration at 8 h,[6],2.46 ng/mL
same,concentration at 12 h,[4],1.02 ng/mL
same,concentration at 12 h,[5],1.09 ng/mL
same,concentration at 12 h,[6],1.02 ng/mL
same,concentration at 24 h,[4],0.56 ng/mL
same,concentration at 24 h,[5],0.52 ng/mL
same,concentration at 24 h,[6],0.51 ng/mL
same,concentration at 0 h,[7],33.3 ng/mL
same,concentration at 0 h,[8],37.9 ng/mL
same,concentration at 0 h,[9],39.6 ng/mL
same,concentration at 10 min,[7],52.5 ng/mL
same,concentration at 10 min,[8],48.3 ng/mL
same,concentration at 10 min,[9],46.3 ng/mL
same,concentration at 0.5 h,[7],59.8 ng/mL
same,concentration at 0.5 h,[8],51.9 ng/mL
same,concentration at 0.5 h,[9],48.6 ng/mL
same,concentration at 1 h,[7],57.7 ng/mL
same,concentration at 1 h,[8],56.5 ng/mL
same,concentration at 1 h,[9],57.7 ng/mL
same,concentration at 2 h,[7],42.5 ng/mL
same,concentration at 2 h,[8],41.6 ng/mL
same,concentration at 2 h,[9],42.2 ng/mL
same,concentration at 4 h,[7],17.5 ng/mL
same,concentration at 4 h,[8],20.3 ng/mL
same,concentration at 4 h,[9],20.3 ng/mL
same,concentration at 6 h,[7],6.43 ng/mL
same,concentration at 6 h,[8],7.69 ng/mL
same,concentration at 6 h,[9],7.71 ng/mL
same,concentration at 8 h,[7],3.15 ng/mL
same,concentration at 8 h,[8],3.77 ng/mL
same,concentration at 8 h,[9],3.34 ng/mL
same,concentration at 12 h,[7],1.5 ng/mL
same,concentration at 12 h,[8],1.74 ng/mL
same,concentration at 12 h,[9],1.64 ng/mL
same,concentration at 24 h,[7],0.78 ng/mL
same,concentration at 24 h,[8],0.87 ng/mL
same,concentration at 24 h,[9],0.85 ng/mL
same,concentration at 48 h,[7],0.62 ng/mL
same,concentration at 48 h,[8],0.21 ng/mL
same,concentration at 0 h,[10],88.6 ng/mL
same,concentration at 0 h,[11],82.3 ng/mL
same,concentration at 10 min,[12],121 ng/mL
same,concentration at 10 min,[10],110 ng/mL
same,concentration at 10 min,[11],121 ng/mL
same,concentration at 0.5 h,[12],130 ng/mL
same,concentration at 0.5 h,[10],125 ng/mL
same,concentration at 0.5 h,[11],130 ng/mL
same,concentration at 1 h,[12],124 ng/mL
same,concentration at 1 h,[10],118 ng/mL
same,concentration at 1 h,[11],116 ng/mL
same,concentration at 2 h,[12],83.5 ng/mL
same,concentration at 2 h,[10],86.6 ng/mL
same,concentration at 2 h,[11],86.5 ng/mL
same,concentration at 4 h,[12],45.6 ng/mL
same,concentration at 4 h,[10],50 ng/mL
same,concentration at 4 h,[11],45.6 ng/mL
same,concentration at 6 h,[12],20.3 ng/mL
same,concentration at 6 h,[10],23.5 ng/mL
